Like-named read-outs stand apart in the source and are kept apart here. One block for each molecule: values may come before it.
Key:
HBC-4 = test: 39-cancer cell panel assay: HBC-4; assay type: cell-based; conditions: Homo sapiens, HBC4, Br
BSY-1 = test: 39-cancer cell panel assay: BSY-1; assay type: cell-based; conditions: Homo sapiens, Br
HBC-5 = test: 39-cancer cell panel assay: HBC-5; assay type: cell-based; conditions: Homo sapiens, HBC5, Br
MCF-7 = test: 39-cancer cell panel assay: MCF-7; assay type: cell-based; conditions: Homo sapiens, MCF7, Br
MDA-MB-231 = test: 39-cancer cell panel assay: MDA-MB-231; assay type: cell-based; conditions: Homo sapiens, Br
U251 = test: 39-cancer cell panel assay: U251; assay type: cell-based; conditions: Homo sapiens, U-251, CNS
SF-268 = test: 39-cancer cell panel assay: SF-268; assay type: cell-based; conditions: Homo sapiens, CNS
SF-295 = test: 39-cancer cell panel assay: SF-295; assay type: cell-based; conditions: Homo sapiens, CNS
SF-539 = test: 39-cancer cell panel assay: SF-539; assay type: cell-based; conditions: Homo sapiens, CNS
SNB-75 = test: 39-cancer cell panel assay: SNB-75; assay type: cell-based; conditions: Homo sapiens, CNS
SNB-78 = test: 39-cancer cell panel assay: SNB-78; assay type: cell-based; conditions: Homo sapiens, CNS
HCC2998 = test: 39-cancer cell panel assay: HCC2998; assay type: cell-based; conditions: Homo sapiens, HCC 2998, Co
KM-12 = test: 39-cancer cell panel assay: KM-12; assay type: cell-based, human; conditions: Co
HT-29 = test: 39-cancer cell panel assay: HT-29; assay type: cell-based; conditions: Homo sapiens, Co
HCT-15 = test: 39-cancer cell panel assay: HCT-15; assay type: cell-based; conditions: Homo sapiens, Co
HCT-116 = test: 39-cancer cell panel assay: HCT-116; assay type: cell-based; conditions: Homo sapiens, Co
NCI-H23 = test: 39-cancer cell panel assay: NCI-H23; assay type: cell-based; conditions: Homo sapiens, Lu
NCI-H226 = test: 39-cancer cell panel assay: NCI-H226; assay type: cell-based; conditions: Homo sapiens, Lu
NCI-H522 = test: 39-cancer cell panel assay: NCI-H522; assay type: cell-based; conditions: Homo sapiens, Lu
NCI-H460 = test: 39-cancer cell panel assay: NCI-H460; assay type: cell-based; conditions: Homo sapiens, Lu
A549 = test: 39-cancer cell panel assay: A549; assay type: cell-based; conditions: Homo sapiens, Lu
DMS273 = test: 39-cancer cell panel assay: DMS273; assay type: cell-based; conditions: Homo sapiens, DMS-273, Lu
DMS114 = test: 39-cancer cell panel assay: DMS114; assay type: cell-based; conditions: Homo sapiens, DMS-114, Lu
LOX-IMVI = test: 39-cancer cell panel assay: LOX-IMVI; assay type: cell-based; conditions: Homo sapiens, Me
OVCAR-3 = test: 39-cancer cell panel assay: OVCAR-3; assay type: cell-based; conditions: Homo sapiens, Ov
OVCAR-4 = test: 39-cancer cell panel assay: OVCAR-4; assay type: cell-based; conditions: Homo sapiens, Ov
OVCAR-5 = test: 39-cancer cell panel assay: OVCAR-5; assay type: cell-based; conditions: Homo sapiens, Ov
OVCAR-8 = test: 39-cancer cell panel assay: OVCAR-8; assay type: cell-based; conditions: Homo sapiens, Ov
SK-OV-3 = test: 39-cancer cell panel assay: SK-OV-3; assay type: cell-based; conditions: Homo sapiens
RXF-631L = test: 39-cancer cell panel assay: RXF-631L; assay type: cell-based; conditions: Homo sapiens, Re
ACHN = test: 39-cancer cell panel assay: ACHN; assay type: cell-based; conditions: Homo sapiens, Re
St-4 = test: 39-cancer cell panel assay: St-4; assay type: cell-based; conditions: Homo sapiens
MKN1 = test: 39-cancer cell panel assay: MKN1; assay type: cell-based; conditions: Homo sapiens, MKN-1, St
MKN7 = test: 39-cancer cell panel assay: MKN7; assay type: cell-based; conditions: Homo sapiens, MKN-7, St
MKN28 = test: 39-cancer cell panel assay: MKN28; assay type: cell-based; conditions: Homo sapiens, MKN-28, St
MKN45 = test: 39-cancer cell panel assay: MKN45; assay type: cell-based; conditions: Homo sapiens, MKN-45, St
MKN74 = test: 39-cancer cell panel assay: MKN74; assay type: cell-based; conditions: Homo sapiens, MKN-74, St
DU-145 = test: 39-cancer cell panel assay: DU-145; assay type: cell-based; conditions: Homo sapiens, Pro
PC-3 = test: 39-cancer cell panel assay: PC-3; assay type: cell-based; conditions: Homo sapiens, Pro
[1] = target: T1, human dihydroorotate dehydrogenase (HsDHODH) (Homo sapiens, UniProt Q02127); test: Inhibition of recombinant human DHODH enzyme activity; assay type: biochemical; conditions: for IC50: recombinant human DHODH; for inhibition at 1 µM: at 1,000 nM, read-out: Inhibition of HsDHODH activity (value in parentheses)
T1 construct: made in house
T1 sequence (Q02127 whole entry): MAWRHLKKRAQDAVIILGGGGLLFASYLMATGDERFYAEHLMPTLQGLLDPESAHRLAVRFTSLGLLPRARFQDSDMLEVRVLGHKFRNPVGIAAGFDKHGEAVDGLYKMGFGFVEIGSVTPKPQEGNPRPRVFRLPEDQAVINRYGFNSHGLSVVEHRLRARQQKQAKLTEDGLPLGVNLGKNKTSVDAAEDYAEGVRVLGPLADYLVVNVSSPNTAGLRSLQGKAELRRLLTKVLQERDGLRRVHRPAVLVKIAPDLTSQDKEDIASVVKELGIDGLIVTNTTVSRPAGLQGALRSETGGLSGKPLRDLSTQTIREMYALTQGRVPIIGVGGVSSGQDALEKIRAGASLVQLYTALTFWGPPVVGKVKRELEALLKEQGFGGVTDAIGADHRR

Complexes I–III = test: NADH-cytochrome c reductase (complexes I–III) activity, bovine mitochondria; assay type: biochemical
Experimental: (§1) Recombinant human DHODH was purified, crystallized, and assayed as previously described ([Inaoka et al., 2016]) without modification. Bovine mitochondrial fractions were prepared as previously described ([Kita et al., 1988]) and NADH dehydrogenase (complex I), succinate:quinone reductase (complex II), quinol oxidase (complexes III–IV), NADH-cytochrome c reductase (complexes I–III), and succinate-cytochrome c (complexes II–III) activities were assayed following an established method ([Takamiya et al., 1986]; [Miyadera et al., 2001]; [Matsumoto et al., 2008]; [Kido et al., 2010]; [Nihashi et al., 2017]).

Complex II–III = test: Succinate-cytochrome c reductase (complexes II–III) activity, bovine mitochondria; assay type: biochemical
Experimental: as §1

Complex I = test: NADH dehydrogenase (complex I) activity, bovine mitochondria; assay type: biochemical; conditions: at 5 μM
Experimental: as §1

Complex II = target: T2, Complex II (Bos taurus, UniProt P35720+Q3T189+Q95123); test: Succinate:quinone reductase (complex II) activity, bovine mitochondria; assay type: biochemical
T2 construct: from tissue; host or cells: bovine mitochondrial fraction / sub-mitochondrial particles
T2 sequence (P31039 45-665 partner limits assumed): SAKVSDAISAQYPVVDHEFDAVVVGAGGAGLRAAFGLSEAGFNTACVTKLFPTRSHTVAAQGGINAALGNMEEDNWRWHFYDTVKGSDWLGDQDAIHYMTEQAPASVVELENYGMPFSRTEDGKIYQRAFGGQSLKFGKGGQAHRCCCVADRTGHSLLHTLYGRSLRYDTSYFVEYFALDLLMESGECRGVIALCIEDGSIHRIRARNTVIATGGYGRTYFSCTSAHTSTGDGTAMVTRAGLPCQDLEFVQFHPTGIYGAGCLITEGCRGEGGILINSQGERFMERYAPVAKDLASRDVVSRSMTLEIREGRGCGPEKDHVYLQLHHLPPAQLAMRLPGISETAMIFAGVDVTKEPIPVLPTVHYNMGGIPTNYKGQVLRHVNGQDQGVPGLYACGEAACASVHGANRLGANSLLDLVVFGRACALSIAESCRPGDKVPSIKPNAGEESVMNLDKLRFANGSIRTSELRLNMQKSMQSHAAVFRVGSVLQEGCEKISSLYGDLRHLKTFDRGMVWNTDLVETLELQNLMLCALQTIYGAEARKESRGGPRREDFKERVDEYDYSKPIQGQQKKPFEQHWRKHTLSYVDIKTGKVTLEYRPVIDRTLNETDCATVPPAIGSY
T2 sequence (Q3T189 29-280): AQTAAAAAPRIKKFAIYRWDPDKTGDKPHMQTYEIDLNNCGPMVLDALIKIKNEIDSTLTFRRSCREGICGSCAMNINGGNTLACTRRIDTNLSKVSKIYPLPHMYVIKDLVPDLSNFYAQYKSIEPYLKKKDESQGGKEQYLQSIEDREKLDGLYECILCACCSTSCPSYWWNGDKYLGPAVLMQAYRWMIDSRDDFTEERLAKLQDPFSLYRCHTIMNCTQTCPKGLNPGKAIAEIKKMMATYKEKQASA
T2 sequence (P35720 30-169): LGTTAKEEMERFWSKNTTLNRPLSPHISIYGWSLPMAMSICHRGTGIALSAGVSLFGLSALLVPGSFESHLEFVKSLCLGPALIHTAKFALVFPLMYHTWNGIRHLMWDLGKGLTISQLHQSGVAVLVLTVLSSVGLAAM
T2 sequence (Q95123 56-158): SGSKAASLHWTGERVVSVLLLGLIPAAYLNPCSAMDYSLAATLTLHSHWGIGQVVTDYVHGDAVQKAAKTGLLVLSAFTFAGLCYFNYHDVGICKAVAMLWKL

Complex III = target: T3, Complex III (Bos taurus, UniProt P00157); test: Quinol oxidase (complex III) activity, bovine mitochondria; assay type: biochemical; conditions: ubiquinol oxidase activity
T3 construct: from tissue; host or cells: bovine mitochondrial fraction / sub-mitochondrial particles

[2] = purified enzyme fixed at 10 nM, read-out: IC50 (nM), inhibition of human DHODH

SMILES: C/C(=C\COC(=O)C(C)C)CC/C(C)=C/Cc1c(O)c(Cl)c(C)c(C=O)c1O [Compound 12]
- GI50 (HBC-4): 9.4 µM
- GI50 (BSY-1): 16 µM
- GI50 (HBC-5): 18 µM
- GI50 (MCF-7): 6.7 µM
- GI50 (MDA-MB-231): 10 µM
- GI50 (U251): 4.9 µM
- GI50 (SF-268): 9.5 µM
- GI50 (SF-295): 16 µM
- GI50 (SF-539): 2.2 µM
- GI50 (SNB-75): 28 µM
- GI50 (SNB-78): 28 µM
- GI50 (HCC2998): 16 µM
- GI50 (μM) KM-12 (KM-12): 10.0 µM
- GI50 (HT-29): 5.8 µM
- GI50 (HCT-15): 1.9 µM
- GI50 (HCT-116): 4.6 µM
- GI50 (NCI-H23): 13 µM
- GI50 (NCI-H226): 8 µM
- GI50 (NCI-H522): 4.2 µM
- GI50 (NCI-H460): 4.5 µM
- GI50 (A549): 7.1 µM
- GI50 (DMS273): 3.6 µM
- GI50 (DMS114): 12 µM
- GI50 (LOX-IMVI): 3.4 µM
- GI50 (OVCAR-3): 7.1 µM
- GI50 (OVCAR-4): 19 µM
- GI50 (OVCAR-5): 22 µM
- GI50 (OVCAR-8): 9.4 µM
- GI50 (SK-OV-3): 49 µM
- GI50 (RXF-631L): 16 µM
- GI50 (ACHN): 16 µM
- GI50 (St-4): 17 µM
- GI50 (MKN1): 12 µM
- GI50 (MKN7): 16 µM
- GI50 (MKN28): 13 µM
- GI50 (MKN45): 24 µM
- GI50 (MKN74): 11 µM
- GI50 (DU-145): 23 µM
- GI50 (PC-3): 13 µM

SMILES: COc1[nH]c(=O)c(C(=O)[C@@H](C)C[C@H](C)[C@@H](Cl)CCl)c(O)c1OC [Atpenin A5, reference compound]
- IC50 ([1]; IC50 (μM) HsDHODH, Table 6): > 10 µM
- IC50 (Complexes I–III): 2.8 ± 0.44 µM
- IC50 (Complex II–III): 0.0063 ± 0.0002 µM
- Inhibition (%) Complex I (Complex I): 10 ± 2.7%
- inhibition at 5 µM (Complex II): 97 ± 1%
- inhibition at 5 µM (Complex III): 0%

SMILES: CCCCCC(C)CCc1c(O)c(Cl)c(C)c(C=O)c1O (stereo not drawn) [Compound 18]
- inhibition at 1 µM [1]: 37%
- IC50 [1, 2]: > 1 µM

SMILES: C=C(C)[C@H]1Cc2c(ccc3c2O[C@@H]2COc4cc(OC)c(OC)cc4[C@@H]2C3=O)O1 [Rotenone, reference compound]
- IC50 ([1]; IC50 (μM) HsDHODH, Table 6): > 10 µM
- IC50 (Complexes I–III): 0.0063 ± 0.0001 µM
- IC50 (Complex II–III): > 10 µM
- Inhibition (%) Complex I (Complex I): 94 ± 1.5%
- inhibition at 5 µM (Complex II): 6.4 ± 7.9%
- inhibition at 5 µM (Complex III): 1.1 ± 2.8%

SMILES: Cc1c(Cl)c(O)c(CCC(C)CCCCOC(=O)C(C)(C)C)c(O)c1C=O (stereo not drawn) [Compound 16]
- inhibition at 1 µM [1]: 21%
- IC50 [1, 2]: > 1 µM

SMILES: Cc1c(Cl)c(O)c(CCC(C)CCCC(C)COC(=O)C(C)(C)C)c(O)c1C=O (stereo not drawn) [Compound 14]
- HsDHODH inhibition activity (in words) [1]: abolished
- inhibition at 1 µM [1]: 35%
- IC50 [1, 2]: > 1 µM

Other lines, results leading:

- fold increase in the IC50 in comparison to 3 ([1]; HsDHODH IC50 versus compound 3): > 13 fold
- inhibition at 1 µM [1]: 36%
- IC50 [1, 2]: > 1 µM
SMILES: CC(C)=CCC/C(C)=C/Cc1c(O)c(Cl)cc(C=O)c1O [Compound 24]

- IC50 [1, 2]: 0.0741 ± 0.022 µM
SMILES: CC(C)=CCC/C(C)=C/Cc1c(O)c(Cl)c(C)c(C=O)c1O [Compound 3, colletochlorin B]

- IC50 [1, 2]: 0.0714 ± 0.0024 µM
SMILES: CCCCC/C(C)=C/Cc1c(O)c(Cl)c(C)c(C=O)c1O [Compound 17]
